Results published in patent US11584755B2 (IDEAYA BIOSCIENCES, INC., priority 2017, dated 2023).

Legend:
Format in all cases: biochemical
[1] = biological target: hFEN1 (Homo sapiens (Human), UniProt P39748); assay: Enzymatic IC50 assay, FAM-labeled DNA oligomer substrate, fluorescence intensity (FEN1); conditions: hFEN1 70 pM, substrate 100 nM, reaction time 20 minutes, 23° C.
Method in brief: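 FEN1, EXO1 or XPG was preincubated 15 min with compound, then the FAM-labelled DNA oligomer substrate was added in Tris-HCl pH 8.0 with 10 mM MgCl2 at 23° C. FEN1 was 70 pM with 100 nM substrate for 20 min, EXO1 6 nM with 30 nM for 60 min, and XPG 100 nM with 100 nM for 120 min. Reactions were EDTA-stopped and read by fluorescence intensity.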

[2] = biological target: hEXO1, Isoform1 (Homo sapiens (Human), UniProt Q9UQ84); assay: Enzymatic IC50 assay, FAM-labeled DNA oligomer substrate, fluorescence intensity (EXO1); conditions: hEXO1 6 nM, substrate 30 nM, reaction time 60 minutes, 23° C.
Description: (§1) FEN1, EXO1 or XPG enzyme was incubated with compound or vehicle (DMSO) and the FAM-labeled DNA oligomer substrate in a microtiter plate. The stop buffer contains EDTA to stop the enzymatic reaction. The plate is read for fluorescence intensity. The high control (DMSO) with high fluorescence intensity represents no inhibition of enzymatic reaction while the low control (10 μM) with low fluorescence intensity represents full inhibition of enzymatic reaction.
(§2) • FEN1 • hFEN1: 70 pM • Substrate: 100 nM • Reaction time: 20 minutes • EXO1 • hEXO1: 6 nM, Isoforml • Substrate: 30 nM • Reaction time: 60 minutes • XPG • hXPG: 100 nM • Substrate: 100 nM • Reaction time: 120 minutes
(§3) Annealing Buffer: 50 mM Tris-HCl, 50 mM NaCl, 1 mM DTT Assay buffer: 50 mM Tris-HCl pH 8.0, 10 mM MgCl2, 0.01% BSA, 1 mM DTT Stop buffer: 50 mM EDTA in assay buffer Temperature: 23° C. Total volume: 40 μl Controls: • 0% inhibition control: DMSO • 100% inhibition control: 10 μM (final) 5-chloro-3-hydroxy-1,3-dihydroquinazoline-2,4-dione Enzyme Reaction and Detection: • 1. Prepare 25 μM intermediate stock of the substrate by diluting SEQ ID NO:1, SEQ ID NO:2, and SEQ ID NO:3 in annealing buffer, in a PCR tube. • 2. Place the PCR tube on a heat block, heat at 95° C. for 3 minutes, then drop in 0.2° C. increments over 2 minutes, stopping at 25° C. • 3. Remove the tube and let the tube cool at room temperature. • 4. Transfer 10 μL of 3× final concentration test compounds or DMSO to the appropriate wells of a microtiter plate. • 5. Transfer 10 μL of 3× final concentration enzyme in assay buffer or assay buffer alone to the appropriate wells. • 6. Incubate the plate at room temperature for 15 minutes. • 7. Transfer 10 μL of 3× substrate in assay buffer to all the test wells. • 8. Incubate the plate at room temperature for prescribed reaction time. • 9. Centrifuge the plate at 1000 rpm for 1 minute. • 10. Transfer 10 μL of stop buffer to all the test wells. • 11. Centrifuge the plate at 1000 rpm for 1 minute. • 12. Read the plate on a plate reader.

[3] = biological target: hXPG (Homo sapiens (Human), UniProt P28715); assay: Enzymatic IC50 assay, FAM-labeled DNA oligomer substrate, fluorescence intensity (XPG); conditions: hXPG 100 nM, substrate 100 nM, reaction time 120 minutes, 23° C.
Description: as §1, §2, §3

Sequence of hFEN1 (P39748 whole entry): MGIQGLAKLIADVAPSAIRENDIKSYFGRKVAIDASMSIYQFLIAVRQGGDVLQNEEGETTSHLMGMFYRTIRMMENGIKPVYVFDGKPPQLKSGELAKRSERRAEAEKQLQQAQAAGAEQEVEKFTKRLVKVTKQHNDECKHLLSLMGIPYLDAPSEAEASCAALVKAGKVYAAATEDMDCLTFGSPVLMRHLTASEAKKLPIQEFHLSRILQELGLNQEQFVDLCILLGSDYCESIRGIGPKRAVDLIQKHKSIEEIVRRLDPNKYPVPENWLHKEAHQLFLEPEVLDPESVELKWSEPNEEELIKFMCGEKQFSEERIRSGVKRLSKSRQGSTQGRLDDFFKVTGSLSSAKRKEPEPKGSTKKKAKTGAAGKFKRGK
Sequence of hEXO1, Isoform1 (Q9UQ84 whole entry, canonical isoform): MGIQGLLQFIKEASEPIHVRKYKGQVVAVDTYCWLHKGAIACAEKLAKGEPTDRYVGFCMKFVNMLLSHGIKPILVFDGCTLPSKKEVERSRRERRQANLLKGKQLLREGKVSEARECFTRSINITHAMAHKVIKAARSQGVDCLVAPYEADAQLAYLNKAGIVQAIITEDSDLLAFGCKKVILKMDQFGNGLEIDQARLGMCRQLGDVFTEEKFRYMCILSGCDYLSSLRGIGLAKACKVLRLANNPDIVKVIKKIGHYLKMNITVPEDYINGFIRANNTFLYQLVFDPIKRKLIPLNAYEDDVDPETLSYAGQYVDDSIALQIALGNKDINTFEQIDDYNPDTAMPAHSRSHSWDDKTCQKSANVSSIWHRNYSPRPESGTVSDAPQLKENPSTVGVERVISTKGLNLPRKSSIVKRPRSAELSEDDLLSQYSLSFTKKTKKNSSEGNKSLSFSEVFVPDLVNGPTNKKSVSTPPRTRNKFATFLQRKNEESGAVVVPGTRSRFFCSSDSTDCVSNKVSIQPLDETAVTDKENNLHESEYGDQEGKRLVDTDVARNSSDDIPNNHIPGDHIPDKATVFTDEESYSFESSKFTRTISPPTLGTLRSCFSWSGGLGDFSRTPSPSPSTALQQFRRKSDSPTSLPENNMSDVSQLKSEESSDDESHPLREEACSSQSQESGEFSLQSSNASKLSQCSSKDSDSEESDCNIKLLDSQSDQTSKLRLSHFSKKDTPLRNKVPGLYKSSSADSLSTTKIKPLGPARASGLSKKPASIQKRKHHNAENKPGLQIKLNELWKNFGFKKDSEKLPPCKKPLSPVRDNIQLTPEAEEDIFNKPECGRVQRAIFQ
Sequence of hXPG (P28715 whole entry): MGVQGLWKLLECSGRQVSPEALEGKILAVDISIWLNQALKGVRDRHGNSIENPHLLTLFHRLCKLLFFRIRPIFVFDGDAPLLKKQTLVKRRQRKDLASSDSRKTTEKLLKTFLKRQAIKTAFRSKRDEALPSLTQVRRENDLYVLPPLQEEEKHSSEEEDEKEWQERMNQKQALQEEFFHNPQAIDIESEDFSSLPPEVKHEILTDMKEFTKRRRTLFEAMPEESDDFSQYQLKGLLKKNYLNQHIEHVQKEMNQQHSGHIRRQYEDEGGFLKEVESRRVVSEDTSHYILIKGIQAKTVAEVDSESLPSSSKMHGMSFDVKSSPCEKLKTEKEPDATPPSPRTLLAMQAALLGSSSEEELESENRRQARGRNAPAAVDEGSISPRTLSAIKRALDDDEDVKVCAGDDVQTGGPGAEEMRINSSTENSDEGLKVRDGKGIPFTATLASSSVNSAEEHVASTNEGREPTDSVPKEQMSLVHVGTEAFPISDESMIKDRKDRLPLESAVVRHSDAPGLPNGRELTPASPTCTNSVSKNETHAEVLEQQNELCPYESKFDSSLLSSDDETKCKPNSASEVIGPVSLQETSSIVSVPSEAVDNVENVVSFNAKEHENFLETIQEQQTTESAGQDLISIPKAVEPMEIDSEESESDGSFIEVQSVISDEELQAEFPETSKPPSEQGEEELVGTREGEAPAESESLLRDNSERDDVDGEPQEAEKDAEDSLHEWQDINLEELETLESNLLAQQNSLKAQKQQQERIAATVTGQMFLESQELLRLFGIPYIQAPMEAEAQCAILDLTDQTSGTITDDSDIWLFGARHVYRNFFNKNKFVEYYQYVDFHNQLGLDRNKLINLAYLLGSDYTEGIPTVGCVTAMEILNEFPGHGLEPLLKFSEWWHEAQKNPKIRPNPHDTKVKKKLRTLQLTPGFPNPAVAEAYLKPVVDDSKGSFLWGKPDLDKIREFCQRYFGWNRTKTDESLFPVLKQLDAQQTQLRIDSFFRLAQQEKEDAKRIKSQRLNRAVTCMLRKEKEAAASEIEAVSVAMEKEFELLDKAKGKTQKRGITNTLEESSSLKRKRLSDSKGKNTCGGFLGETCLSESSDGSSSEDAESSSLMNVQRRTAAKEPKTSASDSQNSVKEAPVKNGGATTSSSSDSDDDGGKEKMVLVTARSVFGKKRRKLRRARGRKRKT

IC50 [1] [nM]	IC50 [2] [nM]	IC50 [3] [nM]	SMILES
750 to 2250	2250 to 10000	2250 to 10000	O=C(O)c1c(O)c(=O)n(Cc2ccccc2)c2ccsc12 [Example 3, 4-benzyl-6-hydroxy-5-oxo-4,5-dihydrothieno[3,2-b]pyridine-7-carboxylic acid]
	2250 to 10000	2250 to 10000	COc1ccc(Cn2cc(Cn3c(=O)c(O)c(C(=O)O)c4sccc43)cn2)cc1 [Example 126, 6-hydroxy-4-{[1-(4-methoxybenzyl)-1H-pyrazol-4-yl]methyl}-5-oxo-4,5-dihydrothieno[3,2-b]pyridine-7-carboxylic acid]
< 200	250 to 750	750 to 2250	O=C(O)c1c(O)c(=O)n(Cc2cnn(-c3cccnc3)c2)c2ccsc12 [Example 87, 6-hydroxy-5-oxo-4-{[1-(pyridin-3-yl)-1H-pyrazol-4-yl]methyl}-4,5-dihydrothieno[3,2-b]pyridine-7-carboxylic acid]
< 200	250 to 750	750 to 2250	COc1ccc(-n2cc(Cn3c(=O)c(O)c(C(=O)O)c4sccc43)cn2)cc1 [Example 113, 6-hydroxy-4-{[1-(4-methoxyphenyl)-1H-pyrazol-4-yl]methyl}-5-oxo-4,5-dihydrothieno[3,2-b]pyridine-7-carboxylic acid]
< 200	2250 to 10000		O=C(O)Cn1cc(Cn2c(=O)c(O)c(C(=O)O)c3sccc32)cn1 [Example 163, 4-{[1-(carboxymethyl)-1H-pyrazol-4-yl]methyl}-6-hydroxy-5-oxo-4,5-dihydrothieno[3,2-b]pyridine-7-carboxylic acid]
750 to 2250	2250 to 10000		Cc1nn(C)cc1Cn1c(=O)c(O)c(C(=O)O)c2sccc21 [Example 162, 4-[(1,3-dimethyl-1H-pyrazol-4-yl)methyl]-6-hydroxy-5-oxo-4,5-dihydrothieno[3,2-b]pyridine-7-carboxylic acid]
< 200	2250 to 10000		Nc1ccc(Cn2c(=O)c(O)c(C(=O)O)c3sccc32)cn1 [Example 97, 4-[(6-aminopyridin-3-yl)methyl]-6-hydroxy-5-oxo-4,5-dihydrothieno[3,2-b]pyridine-7-carboxylic acid]
2250 to 10000	2250 to 10000		O=C(O)c1c(O)c(=O)n(Cc2cccc3nonc23)c2ccsc12 [Example 72, 4-(benzo[c][1,2,5]oxadiazol-4-ylmethyl)-6-hydroxy-5-oxo-4,5-dihydrothieno[3,2-b]pyridine-7-carboxylic acid]
250 to 750	250 to 750		O=C(O)c1c(O)c(=O)n(Cc2cnc3c(Br)cccn23)c2ccsc12 [Example 164, 4-[(8-bromoimidazo[1,2-a]pyridin-3-yl)methyl]-6-hydroxy-5-oxo-4,5-dihydrothieno[3,2-b]pyridine-7-carboxylic acid]
< 200	750 to 2250		COc1ccc(Cn2c(=O)c(O)c(C(=O)O)c3sccc32)cc1Cl [Example 70, 4-(3-chloro-4-methoxybenzyl)-6-hydroxy-5-oxo-4,5-dihydrothieno[3,2-b]pyridine-7-carboxylic acid]
	2250 to 10000	2250 to 10000	COc1ccc(Cn2c(=O)c(O)c(C(=O)O)c3sccc32)cn1 [Example 98, 6-hydroxy-4-[(6-methoxypyridin-3-yl)methyl]-5-oxo-4,5-dihydrothieno[3,2-b]pyridine-7-carboxylic acid]
250 to 750	750 to 2250		COc1ccc(-c2ncc(Cn3c(=O)c(O)c(C(=O)O)c4sccc43)s2)cc1 [Example 32, 6-hydroxy-4-{[2-(4-methoxyphenyl)thiazol-5-yl]methyl}-5-oxo-4,5-dihydrothieno[3,2-b]pyridine-7-carboxylic acid]
	750 to 2250	2250 to 10000	O=C(O)c1c(O)c(=O)n(Cc2cnc3ccccn23)c2ccsc12 [Example 100, 6-hydroxy-4-(imidazo[1,2-a]pyridin-3-ylmethyl)-5-oxo-4,5-dihydrothieno[3,2-b]pyridine-7-carboxylic acid]
2250 to 10000	2250 to 10000		N#Cc1ccc(Cn2c(=O)c(O)c(C(=O)O)c3sccc32)cc1 [Example 48, 4-(4-cyanobenzyl)-6-hydroxy-5-oxo-4,5-dihydrothieno[3,2-b]pyridine-7-carboxylic acid]

More lines, now with the values behind:

SMILES	IC50 [1] [nM]	IC50 [2] [nM]	IC50 [3] [nM]
O=C(O)c1c(O)c(=O)n(Cc2cn(-c3ccccc3)nn2)c2ccsc12 [Example 18, 6-hydroxy-5-oxo-4-((1-phenyl-1H-1,2,3-triazol-4-yl)methyl)-4,5-dihydrothieno[3,2-b]pyridine-7-carboxylic acid]	250 to 750	250 to 750	750 to 2250
O=C(O)c1c(O)c(=O)n(Cc2cn(-c3ccc4c(c3)OCO4)nn2)c2ccsc12 [Example 148, 4-{[1-(benzo[d][1,3]dioxol-5-yl)-1H-1,2,3-triazol-4-yl]methyl}-6-hydroxy-5-oxo-4,5-dihydrothieno[3,2-b]pyridine-7-carboxylic acid]	< 200	250 to 750	250 to 750
N#Cc1ccc(Cn2cc(Cn3c(=O)c(O)c(C(=O)O)c4sccc43)cn2)c(C(F)(F)F)c1 [Example 146, 4-({1-[4-cyano-2-(trifluoromethyl)benzyl]-1H-pyrazol-4-yl}methyl)-6-hydroxy-5-oxo-4,5-dihydrothieno[3,2-b]pyridine-7-carboxylic acid]	< 200	2250 to 10000	750 to 2250
CC(=O)Nc1cccc(-c2cccc(Cn3c(=O)c(O)c(C(=O)O)c4sccc43)c2)c1 [Example 2, 4-((3′-acetamido-[1,1′-biphenyl]-3-yl)methyl)-6-hydroxy-5-oxo-4,5-dihydrothieno[3,2-b]pyridine-7-carboxylic acid]	250 to 750	2250 to 10000	2250 to 10000
O=C(O)c1c(O)c(=O)n(Cc2cnn(Cc3ncc4ccccn34)c2)c2ccsc12 [Example 142]	< 200		2250 to 10000
O=C(O)c1c(O)c(=O)n(CC2CCCC2)c2ccsc12 [Example 45, 4-(cyclopentylmethyl)-6-hydroxy-5-oxo-4,5-dihydrothieno[3,2-b]pyridine-7-carboxylic acid]	2250 to 10000	2250 to 10000	
O=C(O)c1c(O)c(=O)n(Cc2cnc(-c3cccc4cnccc34)s2)c2ccsc12 [Example 168, 6-hydroxy-4-{[2-(isoquinolin-5-yl)thiazol-5-yl]methyl}-5-oxo-4,5-dihydrothieno[3,2-b]pyridine-7-carboxylic acid]	2250 to 10000	2250 to 10000	
COc1cc(-c2cccn3c(Cn4c(=O)c(O)c(C(=O)O)c5sccc54)cnc23)ccn1 [Example 165, 6-hydroxy-4-{[8-(2-methoxypyridin-4-yl)imidazo[1,2-a]pyridin-3-yl]methyl}-5-oxo-4,5-dihydrothieno[3,2-b]pyridine-7-carboxylic acid]	750 to 2250	750 to 2250	
O=C(O)c1c(O)c(=O)n(CC2CCCNC2)c2ccsc12 (centres unmarked) [Example 62, 6-hydroxy-5-oxo-4-(piperidin-3-ylmethyl)-4,5-dihydrothieno[3,2-b]pyridine-7-carboxylic acid]	2250 to 10000	2250 to 10000	
CC(=O)N1CCC(Cn2c(=O)c(O)c(C(=O)O)c3sccc32)CC1 [Example 9, 4-[(1-acetyl-4-piperidyl)methyl]-6-hydroxy-5-oxo-thieno[3,2-b]pyridine-7-carboxylic acid]	2250 to 10000	2250 to 10000	
O=C(O)c1c(O)c(=O)n(Cc2cnc3c(-c4ccncc4)cccn23)c2ccsc12 [Example 31, 6-hydroxy-5-oxo-4-{[8-(pyridin-4-yl)imidazo[1,2-a]pyridin-3-yl]methyl}-4,5-dihydrothieno[3,2-b]pyridine-7-carboxylic acid]	2250 to 10000	2250 to 10000	
Cn1ncc(Cn2c(=O)c(O)c(C(=O)O)c3sccc32)c1-c1ccccc1 [Example 160, 6-hydroxy-4-[(1-methyl-5-phenyl-1H-pyrazol-4-yl)methyl]-5-oxo-4,5-dihydrothieno[3,2-b]pyridine-7-carboxylic acid]	> 10000	> 10000	
